Patent US20240145031A1, “Methods and devices for drug repositioning and drug repurposing as nuclear receptor modulators” (Precision Medicine Lab, priority 2022, published 2024)
Like-named read-outs stand apart in the source and are kept apart here.

Legend:
[1] = molecular target: T1, glucocorticoid receptor recombinant human protein, ligand binding domain (LBD) (Homo sapiens, UniProt P04150); assay: nuclear receptor cofactor recruitment peptide array (70 coregulator peptides), ligand induced cofactor peptide interaction profiling; assay type: biochemical; details: example 3, weight factors of table 7
T1 construct: purchased Thermo Fisher Scientific A15668
T1 sequence (P04150 524-758 limits assumed): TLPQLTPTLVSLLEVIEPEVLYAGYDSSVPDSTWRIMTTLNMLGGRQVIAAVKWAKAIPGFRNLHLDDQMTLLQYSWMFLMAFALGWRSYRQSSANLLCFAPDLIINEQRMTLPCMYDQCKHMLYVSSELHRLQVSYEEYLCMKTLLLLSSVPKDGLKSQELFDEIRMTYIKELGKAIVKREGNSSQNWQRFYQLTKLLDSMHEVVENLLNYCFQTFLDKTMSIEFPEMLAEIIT

[2] = molecular target: T1, glucocorticoid receptor recombinant human protein, ligand binding domain (LBD); assay: as above; assay type: biochemical; details: for weighted log fold change: example 3, weight factors of table 7
Description: Interactions between the glucocorticoid receptor ligand binding domain and the selected drugs for repurposing and coregulator peptides were determined using the method as described by Zalachoras et al 2013^xxvii Each peptide array consisting of 70 coregulator peptides as described in table 1 were incubated with a reaction mixture of 1 nM purified glucocorticoid receptor recombinant human protein, ligand binding domain (LBD), (Thermo Fisher Scientific, cat #A15668), ALEXA488-conjugated anti-GST antibody and buffer F (PV4689, A-11131, and PV4547; Invitrogen). […] For ligand induced cofactor peptide interaction profiling the set of repurposing drugs were tested at a concentration of 0.05 mM compared to solvent (2% DMSO in water). Incubation was performed at 20° C. on the cofactor peptide array. Glucocorticoid receptor binding to each peptide on the array, reflected by fluorescent signal, was quantified by image analysis using R-based software (Precision Medicine Lab). The 70 coregulator peptides used represent a range of coregulator nuclear receptor-boxes known to interact with the glucocorticoid receptor and other nuclear receptors. The binding profiles were generated for glucocorticoid receptor-LBD treated with the repurposing drugs vs cortisol.
The R2 is calculated using the data for each of the 70 cofactor peptides using the same weight.
In this example a weight factor was applied on the log fold change data of example 1 to determine the similarities between the tested repositioning drugs versus cortisol using the coefficient of determination, R2, between the weighted log fold change data of the tested repurposing drug to the positive control, cortisol. […] In this example 14 cofactor peptides were used (table 3).

## C[C@]12CCC(=O)C=C1CC[C@@H]1[C@@H]2[C@@H](O)C[C@@]2(C)[C@H]1CC[C@]2(O)C(=O)CO [PC, Cortisol]
[1]; peptide 22 NCOA1_1421_1441
  weighted log fold change: 1.715
[1]; peptide 31 NCOA3_726_747
  weighted log fold change: 0.515
[1]; peptide 39 NR0B2_107_128
  weighted log fold change: 0.769
[1]; peptide 42 NRIP1_369_390
  weighted log fold change: 0.128
[1]; peptide 45 NRIP1_810_831
  weighted log fold change: 0.057
[2]; FIG. 2, 0.05 mM
  binding to coregulator peptide no 22 NCOA1_1421_1444 compared to the negative control (NC), DMSO: increased binding
[2]; peptide 24 NCOA1_738_759
  weighted log fold change: 0.168
[2]; peptide 26 NCOA2_679_700
  weighted log fold change: 0.056
[2]; peptide 27 NCOA2_734_755
  weighted log fold change: 0.366
[2]; peptide 52 PELP1_21_42
  weighted log fold change: 0.028
[2]; peptide 58 PRGC1_134_154
  weighted log fold change: 0.835
[2]; peptide 59 PRGC2_146_166
  weighted log fold change: 0.113
[2]; peptide 63 TIF1A_748_769
  weighted log fold change: 0.058
[2]; peptide 68 UBE3A_650_671
  weighted log fold change: 0.357
[2]; peptide 70 ZNHI3_90_111
  weighted log fold change: 0.025
[2]; example 4, weight factor of 1, peptide 11 IKBB_278_299
  log fold change: 0.611
[2]; example 4, weight factor of 1, peptide 27 NCOA2_734_755
  log fold change: 1.465
[2]; example 4, weight factor of 1, peptide 59 PRGC2_146_166
  log fold change: 0.902
[2]; example 4, weight factor of 1, peptide 68 UBE3A_650_671
  log fold change: 1.430
[2]; peptide 1 ANDR_11_32, 0.05 mM vs solvent (2% DMSO)
  log fold change: 0.549
[2]; peptide 2 CBP_2056_2077, 0.05 mM vs solvent (2% DMSO)
  log fold change: 0.473
[2]; peptide 3 CENPR_159_177, 0.05 mM vs solvent (2% DMSO)
  log fold change: 0.669
[2]; peptide 4 CHD9_1024_1045, 0.05 mM vs solvent (2% DMSO)
  log fold change: 0.375
[2]; peptide 5 CNOT1_141_162, 0.05 mM vs solvent (2% DMSO)
  log fold change: 0.446
[2]; peptide 6 CNOT1_558_579, 0.05 mM vs solvent (2% DMSO)
  log fold change: 0.386
[2]; peptide 7 DHX30_49_70, 0.05 mM vs solvent (2% DMSO)
  log fold change: 0.446
[2]; peptide 8 EP300_2040_2061, 0.05 mM vs solvent (2% DMSO)
  log fold change: 0.383
[2]; peptide 9 EP300_70_91, 0.05 mM vs solvent (2% DMSO)
  log fold change: 0.813
[2]; peptide 11 IKBB_278_299, 0.05 mM vs solvent (2% DMSO)
  log fold change: 0.611
[2]; peptide 13 KMT2D_2674_2695, 0.05 mM vs solvent (2% DMSO)
  log fold change: 0.589
[2]; peptide 14 LCOR_41_62, 0.05 mM vs solvent (2% DMSO)
  log fold change: 1.238
[2]; peptide 15 MAPE_250_271, 0.05 mM vs solvent (2% DMSO)
  log fold change: 0.090
[2]; peptide 16 MAPE_301_322, 0.05 mM vs solvent (2% DMSO)
  log fold change: −0.294
[2]; peptide 17 MED1_593_614, 0.05 mM vs solvent (2% DMSO)
  log fold change: 0.949
[2]; peptide 18 MEN1_256_277, 0.05 mM vs solvent (2% DMSO)
  log fold change: 0.192
[2]; peptide 19 MGMT_87_108, 0.05 mM vs solvent (2% DMSO)
  log fold change: 0.250
[2]; peptide 20 MLL2_4176_4197, 0.05 mM vs solvent (2% DMSO)
  log fold change: 0.650
[2]; peptide 21 MLL2_4703_4724, 0.05 mM vs solvent (2% DMSO)
  log fold change: 0.531
[2]; peptide 22 NCOA1_1421_1441, 0.05 mM vs solvent (2% DMSO)
  log fold change: 1.715
[2]; peptide 23 NCOA1_679_700, 0.05 mM vs solvent (2% DMSO)
  log fold change: 1.097
[2]; peptide 24 NCOA1_738_759, 0.05 mM vs solvent (2% DMSO)
  log fold change: 1.340
[2]; peptide 25 NCOA2_630_651, 0.05 mM vs solvent (2% DMSO)
  log fold change: 1.253
[2]; peptide 26 NCOA2_679_700, 0.05 mM vs solvent (2% DMSO)
  log fold change: 1.777
[2]; peptide 27 NCOA2_734_755, 0.05 mM vs solvent (2% DMSO)
  log fold change: 1.465
[2]; peptide 28 NCOA2_867_888, 0.05 mM vs solvent (2% DMSO)
  log fold change: 0.263
[2]; peptide 29 NCOA3_610_631, 0.05 mM vs solvent (2% DMSO)
  log fold change: 1.176
[2]; peptide 30 NCOA3_674_695, 0.05 mM vs solvent (2% DMSO)
  log fold change: 0.197
[2]; peptide 31 NCOA3_726_747, 0.05 mM vs solvent (2% DMSO)
  log fold change: 1.029
[2]; peptide 32 NCOA4_316_337, 0.05 mM vs solvent (2% DMSO)
  log fold change: 0.839
[2]; peptide 34 NCOR1_1925_1946, 0.05 mM vs solvent (2% DMSO)
  log fold change: 0.398
[2]; peptide 35 NCOR1_2040_2061, 0.05 mM vs solvent (2% DMSO)
  log fold change: 0.391
[2]; peptide 36 NELFB_329_350, 0.05 mM vs solvent (2% DMSO)
  log fold change: 0.195
[2]; peptide 38 NR0B1_2_23, 0.05 mM vs solvent (2% DMSO)
  log fold change: 0.415
[2]; peptide 39 NR0B2_107_128, 0.05 mM vs solvent (2% DMSO)
  log fold change: 1.538
[2]; peptide 41 NRIP1_174_195, 0.05 mM vs solvent (2% DMSO)
  log fold change: 0.213
[2]; peptide 42 NRIP1_369_390, 0.05 mM vs solvent (2% DMSO)
  log fold change: 1.027
[2]; peptide 43 NRIP1_489_510, 0.05 mM vs solvent (2% DMSO)
  log fold change: 0.954
[2]; peptide 44 NRIP1_701_722, 0.05 mM vs solvent (2% DMSO)
  log fold change: 0.609
[2]; peptide 45 NRIP1_810_831, 0.05 mM vs solvent (2% DMSO)
  log fold change: 0.909
[2]; peptide 46 NRIP1_925_946, 0.05 mM vs solvent (2% DMSO)
  log fold change: 0.970
[2]; peptide 47 NSD1_895_916, 0.05 mM vs solvent (2% DMSO)
  log fold change: 0.886
[2]; peptide 48 PAGR1_103_124, 0.05 mM vs solvent (2% DMSO)
  log fold change: 1.057
[2]; peptide 49 PAK6_249_270, 0.05 mM vs solvent (2% DMSO)
  log fold change: 0.362
[2]; peptide 50 PCAF_179_200, 0.05 mM vs solvent (2% DMSO)
  log fold change: 0.771
[2]; peptide 51 PELP1_169_190, 0.05 mM vs solvent (2% DMSO)
  log fold change: 0.496
[2]; peptide 52 PELP1_21_42, 0.05 mM vs solvent (2% DMSO)
  log fold change: 0.888
[2]; peptide 53 PELP1_447_468, 0.05 mM vs solvent (2% DMSO)
  log fold change: 0.771
[2]; peptide 54 PIAS2_7_28, 0.05 mM vs solvent (2% DMSO)
  log fold change: 0.383
[2]; peptide 55 PNRC1_306_327, 0.05 mM vs solvent (2% DMSO)
  log fold change: 0.568
[2]; peptide 56 PPRC1_152_173, 0.05 mM vs solvent (2% DMSO)
  log fold change: 0.380
[2]; peptide 57 PR285_1106_1127, 0.05 mM vs solvent (2% DMSO)
  log fold change: 1.167
[2]; peptide 58 PRGC1_134_154, 0.05 mM vs solvent (2% DMSO)
  log fold change: 1.669
[2]; peptide 59 PRGC2_146_166, 0.05 mM vs solvent (2% DMSO)
  log fold change: 0.902
[2]; peptide 60 PRGC2_338_358, 0.05 mM vs solvent (2% DMSO)
  log fold change: 1.230
[2]; peptide 61 PROX1_58_79, 0.05 mM vs solvent (2% DMSO)
  log fold change: 0.547
[2]; peptide 62 RAD9A_349_370, 0.05 mM vs solvent (2% DMSO)
  log fold change: 0.503
[2]; peptide 63 TIF1A_748_769, 0.05 mM vs solvent (2% DMSO)
  log fold change: 0.930
[2]; peptide 64 TIP60_477_498, 0.05 mM vs solvent (2% DMSO)
  log fold change: 0.672
[2]; peptide 65 TREF1_169_190, 0.05 mM vs solvent (2% DMSO)
  log fold change: 0.886
[2]; peptide 66 TRRAP_972_993, 0.05 mM vs solvent (2% DMSO)
  log fold change: 1.371
[2]; peptide 67 TRXR1_133_154, 0.05 mM vs solvent (2% DMSO)
  log fold change: 0.623
[2]; peptide 68 UBE3A_650_671, 0.05 mM vs solvent (2% DMSO)
  log fold change: 1.430
[2]; peptide 69 WIPI1_120_141, 0.05 mM vs solvent (2% DMSO)
  log fold change: 1.049
[2]; peptide 70 ZNHI3_90_111, 0.05 mM vs solvent (2% DMSO)
  log fold change: 0.814

## Dexamethasone [Drug 3]
[2]
  binding to coregulator peptide no 22 NCOA1_1421_1444 compared to the negative control (NC), DMSO: increased binding
